Data: patent US6706664B1, “Benzoxazole compounds, process for the preparation thereof and herbicides” (UBE Industries, Ltd., priority 1999, dated 2004)

How the values were obtained:
Parameters in all cases: key: 0: normal development; 1: Less damaged; 2: Slightly damaged; 3: Moderately damaged; 4: Severely damaged; 5: All killed
corn [1] = assay: Soil treatment test for upland field; type: in vivo; details: 500 g/ha, glass house 25° C., 3 weeks
In short: (§1)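 Seeds planted in Wagner pots of Ube soil (alluvial) and covered. Wettable powder diluted in 0.05% surfactant water, sprayed uniformly onto soil at 500 g/ha effective rate. Grown 3 weeks, glasshouse, mean 25° C, then damage rated visually 0–5.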

cotton [2] = assay: Soil treatment test for upland field; type: in vivo; details: 500 g/ha, glass house 25° C., 3 weeks
In short: as §1

solgum [3] = assay: Soil treatment test for upland field; type: in vivo; details: 500 g/ha, glass house 25° C., 3 weeks
In short: as §1

soybean [4] = assay: Soil treatment test for upland field; type: in vivo; details: 500 g/ha, glass house 25° C., 3 weeks
In short: as §1

sugar beat [5] = assay: Soil treatment test for upland field; type: in vivo; details: 500 g/ha, glass house 25° C., 3 weeks
In short: as §1

wheat [6] = assay: Soil treatment test for upland field; type: in vivo; details: 500 g/ha, glass house 25° C., 3 weeks
In short: as §1

Large crabgrass [7] = assay: Soil treatment test for upland field; type: in vivo, Digitaria adscendens; details: 500 g/ha, glass house 25° C., 3 weeks
In short: as §1

barnyardgrass [8] = assay: Soil treatment test for upland field; type: in vivo, Echinochloa crusgalli; details: 500 g/ha, glass house 25° C., 3 weeks
In short: as §1

green foxtail [9] = assay: Soil treatment test for upland field; type: in vivo, Setaria viridis; details: 500 g/ha, glass house 25° C., 3 weeks
In short: as §1

blackgrass [10] = assay: Soil treatment test for upland field; type: in vivo, Alopecurus aegualis; details: 500 g/ha, glass house 25° C., 3 weeks
In short: as §1

annual bluegrass [11] = assay: Soil treatment test for upland field; type: in vivo, Poa annua; details: 500 g/ha, glass house 25° C., 3 weeks
In short: as §1

common lambsquartes [12] = assay: Soil treatment test for upland field; type: in vivo, Chenopodium album; details: 500 g/ha, glass house 25° C., 3 weeks
In short: as §1

livid amaranth [13] = assay: Soil treatment test for upland field; type: in vivo, Amaranthus lividus; details: 500 g/ha, glass house 25° C., 3 weeks
In short: as §1

velvetleaf [14] = assay: Soil treatment test for upland field; type: in vivo, Abutilon theophrasti; details: 500 g/ha, glass house 25° C., 3 weeks
In short: as §1

corn [15] = assay: Foliar spread test for upland field; type: in vivo; details: foliar spray 500 ppm, 3 weeks, rank vs non-treated
In short: (§2)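 Wettable powders at 500 ppm, with 0.5% surfactant, were sprayed uniformly over plants raised for roughly 2 weeks in glasshouse pots of volcanic ash soil. Herbicidal damage rated on a 0–5 scale (5 = all killed) after a further 3 weeks at an average 25 °C.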

cotton [16] = assay: Foliar spread test for upland field; type: in vivo; details: foliar spray 500 ppm, 3 weeks, rank vs non-treated
In short: as §2

solgum [17] = assay: Foliar spread test for upland field; type: in vivo; details: foliar spray 500 ppm, 3 weeks, rank vs non-treated
In short: as §2

soybean [18] = assay: Foliar spread test for upland field; type: in vivo; details: foliar spray 500 ppm, 3 weeks, rank vs non-treated
In short: as §2

sugar beat [19] = assay: Foliar spread test for upland field; type: in vivo; details: foliar spray 500 ppm, 3 weeks, rank vs non-treated
In short: as §2

wheat [20] = assay: Foliar spread test for upland field; type: in vivo; details: foliar spray 500 ppm, 3 weeks, rank vs non-treated
In short: as §2

Large crabgrass [21] = assay: Foliar spread test for upland field; type: in vivo, Digitaria adscendens; details: foliar spray 500 ppm, 3 weeks, rank vs non-treated
In short: (§3)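 Post-emergence foliar spray, 500 ppm (wettable powder in water + 0.5% surfactant), on ~2-week-old plants grown in volcanic ash soil; glasshouse, avg 25° C, 3 wk; visual damage score 0–5.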

barnyardgrass [22] = assay: Foliar spread test for upland field; type: in vivo, Echinochloa crusgalli; details: foliar spray 500 ppm, 3 weeks, rank vs non-treated
Text: (§4) (0: normal development, 1: Less damaged, 2: Slightly damaged, 3: Moderately damaged, 4: Severely damaged, 5: All killed).
(§5) Wagner pots, each having an area of 1/5000 are, were packed with volcanic ash soil and then each seed of corn, soybean, cotton, wheat, solgum, sugar beat, Large crabgrass, barnyardgrass, green foxtail, blackgrass, annual bluegrass, common lambsquartes, livid amaranth, velvetleaf and morning glory was planted, covered with soil and grown in a glass house at an average temperature of […] for about 2 weeks.
(§6) Each wettable powder of the desired compounds (I) shown in Table 1 prepared in accordance with Example 2 was diluted to 500 ppm with water containing a surfactant (0.5%) and then uniformly sprayed on the above respective plants.
(§7) After these plants were controlled in a glass house at an average temperature of 25° C. for 3 weeks, the herbicidal effects thereof were investigated.
(§8) The herbicidal effects were evaluated according to the evaluation method described in the above (1).

green foxtail [23] = assay: Foliar spread test for upland field; type: in vivo, Setaria viridis; details: foliar spray 500 ppm, 3 weeks, rank vs non-treated
In short: as §3

blackgrass [24] = assay: Foliar spread test for upland field; type: in vivo, Alopecurus aegualis; details: foliar spray 500 ppm, 3 weeks, rank vs non-treated
Text: as §4, §5, §6, §7, §8

annual bluegrass [25] = assay: Foliar spread test for upland field; type: in vivo, Poa annua; details: foliar spray 500 ppm, 3 weeks, rank vs non-treated
Text: as §4, §5, §6, §7, §8

common lambsquartes [26] = assay: Foliar spread test for upland field; type: in vivo, Chenopodium album; details: foliar spray 500 ppm, 3 weeks, rank vs non-treated
In short: as §3

livid amaranth [27] = assay: Foliar spread test for upland field; type: in vivo, Amaranthus lividus; details: foliar spray 500 ppm, 3 weeks, rank vs non-treated
In short: as §3

velvetleaf [28] = assay: Foliar spread test for upland field; type: in vivo, Abutilon theophrasti; details: foliar spray 500 ppm, 3 weeks, rank vs non-treated
In short: as §3

morning glory = assay: Foliar spread test for upland field; type: in vivo, Ipomoea spps.; details: foliar spray 500 ppm, 3 weeks, rank vs non-treated
In short: as §3

CCC(Oc1cccc(C(F)(F)F)c1)c1nc2cc([N+](=O)[O-])ccc2o1 (stereo not shown) [Compound 178]
4: Effects Barnyardgrass (barnyardgrass [8]) | Effects Common lambsquarters (common lambsquartes [12]) | Effects Common lambsquarters (common lambsquartes [26]) | Effects Livid amaranth (livid amaranth [27])
0: Effects Corn (corn [1]) | Effects Cotton (cotton [2]) | Effects Solgum (solgum [3]) | Effects Soybean (soybean [4]) | Effects Wheat (wheat [6])
5: Effects Large crabgrass (Large crabgrass [7]) | Effects Green foxtail (green foxtail [9]) | Effects Annual bluegrass (annual bluegrass [11]) | Effects Livid amaranth (livid amaranth [13])
3: Effects Blackgrass (blackgrass [10]) | Effects Cotton (cotton [16]) | Effects Soybean (soybean [18]) | Effects Sugar beat (sugar beat [19]) | Effects Large crabgrass (Large crabgrass [21]) | Effects Annual bluegrass (annual bluegrass [25]) | Effects Velvetleaf (velvetleaf [28])
1: Effects Sugar beat (sugar beat [5]) | Effects Velvetleaf (velvetleaf [14])
2: Effects Corn (corn [15]) | Effects Solgum (solgum [17]) | Effects Wheat (wheat [20]) | Effects Barnyardgrass (barnyardgrass [22]) | Effects Green foxtail (green foxtail [23]) | Effects Blackgrass (blackgrass [24])

CCC(Oc1cccc(OC(F)(F)F)c1)c1nc2cc(Cl)ccc2o1 (stereo not shown) [Compound 447]
4: Effects Barnyardgrass (barnyardgrass [8]) | Effects Cotton (cotton [16])
3: Effects Common lambsquarters (common lambsquartes [12]) | Effects Corn (corn [15]) | Effects Solgum (solgum [17]) | Effects Large crabgrass (Large crabgrass [21])
5: Effects Sugar beat (sugar beat [5]) | Effects Large crabgrass (Large crabgrass [7]) | Effects Green foxtail (green foxtail [9]) | Effects Blackgrass (blackgrass [10]) | Effects Annual bluegrass (annual bluegrass [11]) | Effects Livid amaranth (livid amaranth [13]) | Effects Soybean (soybean [18]) | Effects Sugar beat (sugar beat [19]) | Effects Common lambsquarters (common lambsquartes [26]) | Effects Livid amaranth (livid amaranth [27]) | Effects Morning glory (morning glory)
2: Effects Corn (corn [1]) | Effects Velvetleaf (velvetleaf [14]) | Effects Wheat (wheat [20]) | Effects Green foxtail (green foxtail [23]) | Effects Blackgrass (blackgrass [24]) | Effects Annual bluegrass (annual bluegrass [25]) | Effects Velvetleaf (velvetleaf [28])
1: Effects Solgum (solgum [3]) | Effects Wheat (wheat [6]) | Effects Barnyardgrass (barnyardgrass [22])
0: Effects Cotton (cotton [2]) | Effects Soybean (soybean [4])

CCC(Oc1ccc(F)c(C(F)(F)F)c1)c1nc2cc(I)ccc2o1 (stereo not shown) [Compound 171]
2: Effects Barnyardgrass (barnyardgrass [8]) | Effects Common lambsquarters (common lambsquartes [12]) | Effects Corn (corn [15]) | Effects Solgum (solgum [17]) | Effects Wheat (wheat [20])
5: Effects Sugar beat (sugar beat [5]) | Effects Large crabgrass (Large crabgrass [7]) | Effects Green foxtail (green foxtail [9]) | Effects Annual bluegrass (annual bluegrass [11]) | Effects Livid amaranth (livid amaranth [13]) | Effects Green foxtail (green foxtail [23]) | Effects Livid amaranth (livid amaranth [27]) | Effects Morning glory (morning glory)
1: Effects Solgum (solgum [3]) | Effects Wheat (wheat [6]) | Effects Blackgrass (blackgrass [10]) | Effects Barnyardgrass (barnyardgrass [22]) | Effects Blackgrass (blackgrass [24])
4: Effects Cotton (cotton [16]) | Effects Common lambsquarters (common lambsquartes [26])
0: Effects Corn (corn [1]) | Effects Cotton (cotton [2]) | Effects Soybean (soybean [4])
3: Effects Soybean (soybean [18]) | Effects Sugar beat (sugar beat [19]) | Effects Large crabgrass (Large crabgrass [21]) | Effects Annual bluegrass (annual bluegrass [25]) | Effects Velvetleaf (velvetleaf [28])

CCC(Oc1ccc(Cl)c(C(F)(F)F)c1)c1nc2cc(Cl)ccc2o1 (stereo not shown) [Compound 438]
2: Effects Corn (corn [15]) | Effects Solgum (solgum [17]) | Effects Wheat (wheat [20]) | Effects Blackgrass (blackgrass [24])
3: Effects Cotton (cotton [16]) | Effects Large crabgrass (Large crabgrass [21]) | Effects Green foxtail (green foxtail [23]) | Effects Annual bluegrass (annual bluegrass [25]) | Effects Common lambsquarters (common lambsquartes [26]) | Effects Velvetleaf (velvetleaf [28])
1: Effects Barnyardgrass (barnyardgrass [22])
5: Effects Sugar beat (sugar beat [19]) | Effects Livid amaranth (livid amaranth [27])
4: Effects Soybean (soybean [18]) | Effects Morning glory (morning glory)
